Data: paper PMC8445441, “Elucidating the mechanism by which synthetic helper peptides sensitize Pseudomonas aeruginosa to multiple antibiotics” (PLoS Pathogens, 2021)
Like-named read-outs stand apart in the source and are kept apart here.

Columns and labels:
[1] = test system: clinical P. aeruginosa isolates; test: microbe, parasite or virus in culture; conditions: Pseudomonas aeruginosa, 18 h, antibiotic alone
Procedure, shortened: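 MIC is the lowest drug concentration showing no visible growth after 18 h at 37 °C. Two-fold dilutions in MHB were combined with an equal volume of bacterial suspension (about 1 × 10^6 CFU/mL), following CLSI broth microdilution, in triplicate.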

[2] = test system: P. aeruginosa ATCC27853; test: microbe, parasite or virus in culture; set-up: MICa: MIC of the antibiotic / MICac: MIC of the antibiotic in the combination: unit not given beside the values; conditions: for MIC: Pseudomonas aeruginosa, ATCC27853, 18 h, read-out: MICa: MIC of the antibiotic
Procedure, shortened: (§1)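 Values are lowest concentrations showing no visible growth after 18 h at 37 °C. Drugs were serially halved in MHB and combined with equal volumes of a roughly 1 × 10^6 CFU/mL suspension, following CLSI guidance, in triplicate.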

[3] = test system: P. aeruginosa NR-31041; test: microbe, parasite or virus in culture; set-up: MICa: MIC of the antibiotic / MICac: MIC of the antibiotic in the combination: unit not given beside the values; conditions: for MIC: Pseudomonas aeruginosa, NR31041, 18 h, read-out: MICa: MIC of the antibiotic; for FICI / MICac: MIC of the antibiotic in the combination: strain NR-31041; for FICI: antibiotic + D-11 (MICb/MICbc 64/4); for MICac: MIC of the antibiotic in the combination: with D-11 at MICbc 4, unit not given
Procedure, shortened: as §1

[4] = test system: P. aeruginosa PAK; test: microbe, parasite or virus in culture; set-up: MICa: MIC of the antibiotic / MICac: MIC of the antibiotic in the combination: unit not given beside the values; conditions: for MIC: Pseudomonas aeruginosa, 18 h, read-out: MICa: MIC of the antibiotic; for FICI / MICac: MIC of the antibiotic in the combination: strain PAK; for FICI: antibiotic + D-11 (MICb/MICbc 64/4); for MICac: MIC of the antibiotic in the combination: with D-11 at MICbc 4, unit not given
Procedure, shortened: as §1

[5] = test system: P. aeruginosa NR-31040; test: microbe, parasite or virus in culture; set-up: MICa: MIC of the antibiotic / MICac: MIC of the antibiotic in the combination: unit not given beside the values; conditions: for MIC: Pseudomonas aeruginosa, NR31040, 18 h, read-out: MICa: MIC of the antibiotic; for FICI / MICac: MIC of the antibiotic in the combination: strain NR-31040; for FICI: antibiotic + D-11 (MICb/MICbc 128/4); for MICac: MIC of the antibiotic in the combination: with D-11 at MICbc 4, unit not given
Procedure, shortened: as §1

[6] = test system: P. aeruginosa PA14; test: microbe, parasite or virus in culture; set-up: MICa: MIC of the antibiotic / MICac: MIC of the antibiotic in the combination: unit not given beside the values; conditions: for MIC: Pseudomonas aeruginosa, PA14, 18 h, read-out: MICa: MIC of the antibiotic; for FICI / MICac: MIC of the antibiotic in the combination: strain PA14; for FICI: antibiotic + D-11 (MICb/MICbc 128/4); for MICac: MIC of the antibiotic in the combination: with D-11 at MICbc 4, unit not given
Procedure, shortened: as §1

[7] = test system: P. aeruginosa AUMC-Pa-1; conditions: strain AUMC-Pa-1; antibiotic + D-11 (MICb/MICbc 128/4)
Procedure, shortened: as §1

[8] = test system: P. aeruginosa AUMC-Pa-2; conditions: strain AUMC-Pa-2; antibiotic + D-11 (MICb/MICbc 64/4)
Procedure, shortened: as §1

[9] = test system: P. aeruginosa HM-214; conditions: strain HM-214; antibiotic + D-11 (MICb/MICbc 128/4)
Procedure, shortened: as §1

[10] = test system: P. aeruginosa AUMC-Pa-6; test: microbe, parasite or virus in culture; conditions: strain AUMC-Pa-6; for MICa: MIC of the antibiotic: antibiotic alone; for MICa: MIC of the antibiotic / MICac: MIC of the antibiotic in the combination: unit not given; for MICac: MIC of the antibiotic in the combination: with D-11 at MICbc 4
Procedure, shortened: as §1

[11] = test system: P. aeruginosa AUMC-Pa-3; test: microbe, parasite or virus in culture; conditions: for MIC: Pseudomonas aeruginosa, AUMCPA3, 18 h, read-out: MICa: MIC of the antibiotic; for FICI / MICac: MIC of the antibiotic in the combination: strain AUMC-Pa-3; for FICI: antibiotic + D-11 (MICb/MICbc 128/4); for MICac: MIC of the antibiotic in the combination: with D-11 at MICbc 4, unit not given
Procedure, shortened: as §1

[12] = test system: P. aeruginosa PAO1; test: microbe, parasite or virus in culture; conditions: PAO1; for MIC: Pseudomonas aeruginosa, PAO1, 18 h, read-out: MICa: the MIC of antibiotics, S3 Table, antibiotic alone; for FICI / MICac: the MIC for the antibiotic in the combination: S3 Table
Procedure, shortened: as §1

[13] = test system: P. aeruginosa AUMC-Pa-4; test: microbe, parasite or virus in culture; conditions: for MIC: Pseudomonas aeruginosa, AUMCPA4, 18 h, read-out: MICa: MIC of the antibiotic; for FICI / MICac: MIC of the antibiotic in the combination: strain AUMC-Pa-4; for FICI: antibiotic + D-11 (MICb/MICbc 128/4); for MICac: MIC of the antibiotic in the combination: with D-11 at MICbc 4, unit not given
Procedure, shortened: as §1

[14] = test system: P. aeruginosa AUMC-Pa-5; test: microbe, parasite or virus in culture; conditions: strain AUMC-Pa-5; for FICI: antibiotic + D-11 (MICb/MICbc 64/4); for MICa: MIC of the antibiotic: antibiotic alone; for MICa: MIC of the antibiotic / MICac: MIC of the antibiotic in the combination: unit not given; for MICac: MIC of the antibiotic in the combination: with D-11 at MICbc 4
Procedure, shortened: as §1

[15] = read-out: Antibiotic sensibility (MIC) of clinical P. aeruginosa isolate AUMC-Pa-1, strain AUMC-Pa-1
[16] = read-out: Antibiotic sensibility (MIC) of clinical P. aeruginosa isolate AUMC-Pa-2, strain AUMC-Pa-2
[17] = read-out: Antibiotic sensibility (MIC) of clinical P. aeruginosa isolate AUMC-Pa-3, strain AUMC-Pa-3
[18] = read-out: Antibiotic sensibility (MIC) of clinical P. aeruginosa isolate AUMC-Pa-4, strain AUMC-Pa-4
[19] = read-out: Antibiotic sensibility (MIC) of clinical P. aeruginosa isolate AUMC-Pa-5, strain AUMC-Pa-5
[20] = read-out: Antibiotic sensibility (MIC) of clinical P. aeruginosa isolate AUMC-Pa-6, strain AUMC-Pa-6
[21] = read-out: Antibiotic sensibility (MIC) of clinical P. aeruginosa isolate HM-214, strain HM-214
[22] = read-out: Antibiotic sensibility (MIC) of clinical P. aeruginosa isolate NR-31040, strain NR-31040
[23] = read-out: Antibiotic sensibility (MIC) of clinical P. aeruginosa isolate NR-31041, strain NR-31041

In the case of `CO[C@H]1/C=C/O[C@@]2(C)Oc3c(C)c(O)c4c(O)c(c(/C=N/N5CCN(C)CC5)c(O)c4c3C2=O)NC(=O)/C(C)=C\C=C\[C@H](C)[C@H](O)[C@@H](C)[C@@H](O)[C@@H](C)[C@H](OC(C)=O)[C@@H]1C` [Rifampicin], the MIC [1, 15] is reported as 32 µM, the MIC [1, 16] is reported as 16 µM and the MIC [1, 17] is reported as 16 µM. For the same compound, the MIC [1, 18] was 16 µM, the MIC [1, 19] was 32 µM and the MIC [1, 20] was 32 µM. The MIC [1, 21] was 16 µM, the MIC [1, 22] was 16 µM and the MIC [1, 23] was 32 µM. It also gave an MIC [2] of 16 µM, an MIC [3] of 32 µM and an FICI [3] of 0.064. For the same compound, the “MICac: MIC of the antibiotic in the combination” value (shortened to “MICac: MIC of the antibiotic”) [3] was 0.063, the MIC [4] was 16 µM and the FICI [4] was 0.066. For the same compound, the “MICac: MIC of the antibiotic” value [4] was 0.063, the MIC [5] was 16 µM and the FICI [5] was 0.063. For the same compound, the “MICac: MIC of the antibiotic” value [5] was 0.25, the MIC [6] was over 128 µM and the FICI [6] was 0.039. For the same compound, the “MICac: MIC of the antibiotic” value [6] was 2, the FICI [7] was 0.032 and the FICI [8] was 0.064. For the same compound, the FICI [9] was 0.047, the “MICa: MIC of the antibiotic” value [10] was 32 and the “MICac: MIC of the antibiotic” value [10] was 2. For the same compound, the MIC [11] was 16 µM, the FICI [11] was 0.032 and the “MICac: MIC of the antibiotic” value [11] was 0.016. For the same compound, the MIC [12] was 32 µM, the FICI ([12]; antibiotic + 2 μM D-11) was 0.064 and the “MICac: the MIC for the antibiotic in the combination” value (“MICac: the MIC for the antibiotic” below) ([12]; with 2 μM D-11) was 0.0625 µM. For the same compound, the “MICac: the MIC for the antibiotic” value ([12]; with 4 μM D-11) was 0.01562 µM, the MIC [13] was 16 µM and the FICI [13] was 0.047. For the same compound, the “MICac: MIC of the antibiotic” value [13] was 0.25, the FICI [14] was 0.563 and the “MICa: MIC of the antibiotic” value [14] was 32. The “MICac: MIC of the antibiotic” value [14] was 16.
Compound `CO[C@H]1/C=C/O[C@@]2(C)Oc3c(C)c(O)c4c(O)c(c(/C=N/N5CCN(C6CCCC6)CC5)c(O)c4c3C2=O)NC(=O)/C(C)=C\C=C\[C@H](C)[C@H](O)[C@@H](C)[C@@H](O)[C@@H](C)[C@H](OC(C)=O)[C@@H]1C` [Rifapentine] has an MIC [1, 15] of 16 µM, an MIC [1, 16] of 8 µM and an MIC [1, 17] of 8 µM. For the same compound, the MIC [1, 18] was 16 µM, the MIC [1, 19] was 32 µM and the MIC [1, 20] was 16 µM. It also gave an MIC [1, 21] of 8 µM, an MIC [1, 22] of 8 µM and an MIC [1, 23] of 16 µM. For the same compound, the MIC [2] was 32 µM, the FICI ([2]; strain ATCC27853, antibiotic + D-11 (MICb/MICbc 32/4)) was 0.133 and the “MICac: MIC of the antibiotic” value ([2]; strain ATCC27853, with D-11 at MICbc 4, unit not given) was 0.031. The MIC [3] was 16 µM, the FICI [3] was 0.066 and the “MICac: MIC of the antibiotic” value [3] was 0.063. The MIC [4] was 16 µM, the FICI [4] was 0.070 and the “MICac: MIC of the antibiotic” value [4] was 0.125. For the same compound, the MIC [5] was 8 µM, the FICI [5] was 0.094 and the “MICac: MIC of the antibiotic” value [5] was 0.5. For the same compound, the MIC [6] was over 128 µM, the FICI [6] was 0.063 and the “MICac: MIC of the antibiotic” value [6] was 8. The FICI [7] was 0.035, the FICI [8] was 0.066 and the FICI [9] was 0.063. For the same compound, the FICI ([10]; antibiotic + D-11 (MICb/MICbc 64/4)) was 0.188, the “MICa: MIC of the antibiotic” value [10] was 16 and the “MICac: MIC of the antibiotic” value [10] was 2. For the same compound, the MIC [11] was 8 µM, the FICI [11] was 0.035 and the “MICac: MIC of the antibiotic” value [11] was 0.031. It also gave an MIC [12] of 32 µM, an FICI ([12]; antibiotic + 2 μM D-11) of 0.066 and an FICI ([12]; antibiotic + 4 μM D-11) of 0.126. The “MICac: the MIC for the antibiotic” value ([12]; with 2 μM D-11) was 0.125 µM, the “MICac: the MIC for the antibiotic” value ([12]; with 4 μM D-11) was 0.03125 µM and the MIC [13] was 16 µM. For the same compound, the FICI [13] was 0.063, the “MICac: MIC of the antibiotic” value [13] was 0.5 and the FICI [14] was 0.563. For the same compound, the “MICa: MIC of the antibiotic” value [14] was 32 and the “MICac: MIC of the antibiotic” value [14] was 16.
